In one series the test system is glutathione (GSH). Description: Glutathione reactivity / stability against GSH. The class given is physicochemical. Conditions: glutathione (GSH) in PBS buffer, pH 7.4, 5 mM GSH, read-out: half-life (t1/2) against glutathione (converted). Here is the method: A total of 5 µL of a 10 mM compound stock solution in DMSO were added to 5 µL of a 4 mM Indoprofen solution in PBS as internal standard. The mixture was diluted with PBS buffer to a total volume of 1 mL of component A. Additionally, a freshly prepared solution of 10 mM GSH in PBS buffer was used as component B. A total of 250 µL of each component was mixed and immediately subjected to HPLC analysis for t^0 measurement. The probes were stored at 40 °C in between the respective injections. t1/2 was determined by plotting natural logarithm of AUC/AUC0 against time.

Another series has as its target T1, JAK3 (Homo sapiens, UniProt P52333).
T1 construct: purchased Reaction Biology Corporation
T1 sequence (P52333 1-1124): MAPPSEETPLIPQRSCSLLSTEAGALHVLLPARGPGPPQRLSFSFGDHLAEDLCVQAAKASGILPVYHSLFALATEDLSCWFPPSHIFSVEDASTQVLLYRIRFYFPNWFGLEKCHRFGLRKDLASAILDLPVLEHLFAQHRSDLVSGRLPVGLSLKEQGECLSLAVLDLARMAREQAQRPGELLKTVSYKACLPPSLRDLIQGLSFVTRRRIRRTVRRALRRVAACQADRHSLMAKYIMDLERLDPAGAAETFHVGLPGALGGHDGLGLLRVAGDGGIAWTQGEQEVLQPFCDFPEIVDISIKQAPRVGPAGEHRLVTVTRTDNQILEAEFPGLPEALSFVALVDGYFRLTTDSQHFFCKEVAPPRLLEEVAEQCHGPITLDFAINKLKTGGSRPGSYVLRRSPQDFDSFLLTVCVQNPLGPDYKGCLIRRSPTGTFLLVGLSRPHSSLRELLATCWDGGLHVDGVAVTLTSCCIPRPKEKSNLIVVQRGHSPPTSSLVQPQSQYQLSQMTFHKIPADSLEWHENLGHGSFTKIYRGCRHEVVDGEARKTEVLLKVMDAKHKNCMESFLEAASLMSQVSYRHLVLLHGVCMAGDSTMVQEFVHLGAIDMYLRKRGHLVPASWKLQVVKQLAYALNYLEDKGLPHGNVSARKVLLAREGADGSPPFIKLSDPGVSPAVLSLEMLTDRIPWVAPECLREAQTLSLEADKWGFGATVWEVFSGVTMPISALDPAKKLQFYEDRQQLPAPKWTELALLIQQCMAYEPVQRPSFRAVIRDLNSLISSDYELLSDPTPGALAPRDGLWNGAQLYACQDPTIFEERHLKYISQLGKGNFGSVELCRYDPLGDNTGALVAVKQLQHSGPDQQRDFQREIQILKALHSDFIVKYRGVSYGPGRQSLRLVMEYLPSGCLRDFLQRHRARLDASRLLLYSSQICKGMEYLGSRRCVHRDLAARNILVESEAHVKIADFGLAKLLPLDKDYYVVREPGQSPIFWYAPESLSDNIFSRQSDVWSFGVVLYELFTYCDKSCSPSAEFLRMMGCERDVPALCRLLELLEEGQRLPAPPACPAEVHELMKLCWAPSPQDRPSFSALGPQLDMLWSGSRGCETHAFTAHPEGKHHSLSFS
The series can be described thus: JAK3 ELISA assay. Conditions: Determined in a JAK3 ELISA assay. The series is classed as biochemical. On the technique in general: An ELISA detects its analyte on a solid surface through an enzyme-linked reagent.

Series [1] deals with kinases harboring an αD-1 cysteine. The series can be described thus: Profiling at 200 nM against kinases with an αD-1 cysteine. The series is classed as biochemical. Conditions: 200 nM compound. On the procedure: If not mentioned differently, in vitro profiling of compounds was performed at Reaction Biology Corporation using the HotSpot™ assay platform.

The structures appear in SMILES notation.

The source of these data is PMC7730235, “Discovery of a Novel Class of Covalent Dual Inhibitors Targeting the Protein Kinases BMX and BTK” (International Journal of Molecular Sciences, 2020).

By IC50 is commonly meant the midpoint of a concentration-inhibition curve. Read a high IC50 as weaker potency in that assay.

Turning to `C=CC(=O)Nc1cccc(-c2c[nH]c3ncc(NC(=O)c4cccs4)cc23)c1` [Compound 12c, N-(3-(3-acrylamidophenyl)-1H-pyrrolo[2,3-b]pyridin-5-yl)thiophene-2-carboxamide], in the series with glutathione (GSH), the half-life at 25 µM was 9.98 h. Turning to `C=CC(=O)Nc1cccc(-c2c[nH]c3ncc(C(=O)NC4CCCC4)cc23)c1` [Compound 11a, 3-(3-acrylamidophenyl)-N-cyclopentyl-1H-pyrrolo[2,3-b]pyridine-5-carboxamide], the IC50 against JAK3 is greater than 10 µM. Further, the “activity at 200 nM on kinases harboring an αD-1 cysteine” value in series [1] is “did not show substantial activity”.
